Data taken from patent US20110172147A1, “NEUROPEPTIDE-2 RECEPTOR (Y-2R) AGONISTS” (priority 2009, published 2011).
Read-outs that look alike come from different tables or passages of the source.

Tests used:
Assay type in all cases: cell-based
[1] = molecular target: Y4R (Homo sapiens, UniProt P50391); experiment: CaFlux Assay (FLIPR), Y4R
[2] = molecular target: T1, Y5R (Homo sapiens, UniProt Q15761); experiment: CaFlux Assay (FLIPR), Y5R
T1 sequence (Q15761 1-445): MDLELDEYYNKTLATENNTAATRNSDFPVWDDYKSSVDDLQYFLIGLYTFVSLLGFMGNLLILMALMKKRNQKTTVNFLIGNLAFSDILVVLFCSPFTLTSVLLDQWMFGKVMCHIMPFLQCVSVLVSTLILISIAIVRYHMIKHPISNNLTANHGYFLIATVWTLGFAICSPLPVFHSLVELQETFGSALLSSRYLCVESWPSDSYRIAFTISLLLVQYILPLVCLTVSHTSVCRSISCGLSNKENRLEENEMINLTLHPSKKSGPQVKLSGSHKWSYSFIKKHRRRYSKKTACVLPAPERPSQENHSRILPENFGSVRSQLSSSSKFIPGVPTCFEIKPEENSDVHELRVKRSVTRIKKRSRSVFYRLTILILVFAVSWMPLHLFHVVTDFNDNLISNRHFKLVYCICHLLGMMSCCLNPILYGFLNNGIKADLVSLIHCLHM

[3] = molecular target: T2, hNPY2R (Homo sapiens, UniProt P49146); experiment: CaFlux Assay (FLIPR), Y2R; parameters: expressed in transfected cells; host or cells: HEK-293 stably transfected with G protein chimera Gαqi9
T2 sequence (P49146 1-381): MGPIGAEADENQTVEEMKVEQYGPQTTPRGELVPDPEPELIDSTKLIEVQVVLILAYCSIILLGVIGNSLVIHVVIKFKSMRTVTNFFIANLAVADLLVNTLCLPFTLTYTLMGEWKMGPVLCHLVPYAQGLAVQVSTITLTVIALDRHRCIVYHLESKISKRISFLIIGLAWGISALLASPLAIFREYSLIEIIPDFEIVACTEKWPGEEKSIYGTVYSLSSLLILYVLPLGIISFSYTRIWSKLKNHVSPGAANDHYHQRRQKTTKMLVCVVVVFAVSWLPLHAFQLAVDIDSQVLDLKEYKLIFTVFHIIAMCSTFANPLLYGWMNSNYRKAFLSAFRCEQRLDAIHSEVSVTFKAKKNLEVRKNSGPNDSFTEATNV
How it was run: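 HEK-293 cells stably co-expressing chimeric Gαqi9 and the receptor were plated overnight at 37 °C, loaded 1 h at 37 °C with Calcium-3 dye in HBSS/20 mM HEPES/5 mM probenecid, then given compound on FLIPR. Peak fluorescence rise over 100 s, baseline-subtracted, expressed as % of positive-control maximum.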

[4] = FLIPR; read-out: Y4R EC50 (nM) FLIPR
[5] = FLIPR; read-out: Y5R EC50 (nM) FLIPR
[6] = CaFlux (FLIPR), HEK-293 cells with Gαqi9 and human NPY2 receptor; read-out: Y2R EC50 (nM) FLIPR

Y4R, sequence (P50391 whole entry): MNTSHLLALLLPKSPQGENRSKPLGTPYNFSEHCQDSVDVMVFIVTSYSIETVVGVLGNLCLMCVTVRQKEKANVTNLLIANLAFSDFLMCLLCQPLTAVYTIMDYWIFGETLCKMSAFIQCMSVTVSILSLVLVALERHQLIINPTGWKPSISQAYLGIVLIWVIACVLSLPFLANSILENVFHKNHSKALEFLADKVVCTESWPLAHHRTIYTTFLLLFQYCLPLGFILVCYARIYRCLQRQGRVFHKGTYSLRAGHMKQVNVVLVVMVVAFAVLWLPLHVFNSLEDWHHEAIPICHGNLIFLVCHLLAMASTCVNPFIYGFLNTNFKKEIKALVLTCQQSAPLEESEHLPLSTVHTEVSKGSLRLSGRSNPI

Row | Structure (SMILES) | EC50 [1, 4] | EC50 [2, 5] | EC50 [3, 6] | EC50 ([1]; read-out: Y4R EC50 (nM) FLIPR; FLIPR) | EC50 ([2]; read-out: Y5R EC50 (nM) FLIPR; FLIPR) | EC50 ([3]; read-out: Y2R EC50 (nM) FLIPR; CaFlux (FLIPR), HEK-293 cells with Gαqi9 and human NPY2 receptor)
1 | CC[C@H](C)[C@H](NC(C)=O)C(=O)N[C@@H](CCCCNC(=O)CCOCCOCCOCCOCCOCCOCCOCCOCCOCCOCCOCCOCCOCCOCCOCCOCCOCCOCCOCCOCCOCCOCCOCCOC)C(=O)N1CCN(c2ccc3ncn(CC(=O)N[C@@H](CCCNC(=N)N)C(=O)N[C@@H](Cc4c[nH]cn4)C(=O)N[C@@H](Cc4ccc(O)cc4)C(=O)N[C@@H](CC(C)C)C(=O)N[C@@H](CC(N)=O)C(=O)N[C@@H](Cc4c[nH]c5ccccc45)C(=O)N[C@H](C(=O)N[C@H](C(=O)N[C@@H](CCCNC(=N)N)C(=O)N[C@@H](CCC(N)=O)C(=O)N(C)[C@@H](CCCNC(=N)N)C(=O)N[C@@H](Cc4ccc(O)cc4)C(N)=O)[C@@H](C)O)C(C)C)c(=O)c3c2)CC1 [Example 21] | > 6000 nM | > 6000 nM | 0.139 nM | – | – | –
2 | CCCCCCCCCCCCCCCCCCCC(=O)N[C@@H](CCS(=O)(=O)O)C(=O)N[C@@H](CCS(=O)(=O)O)C(=O)NCCCC[C@H](NC(=O)[C@@H](NC(=O)CCOCCOCCOCCOCCOCCOCCOCCOCCOCCOCCOCCOCCOCCOCCOCCOCCOCCOCCOCCOCCOCCOCCOCCOC)[C@@H](C)CC)C(=O)N1CCN(c2ccc3ncn(CC(=O)N[C@@H](CCCNC(=N)N)C(=O)NC(Cc4c[nH]cn4)C(=O)N[C@@H](Cc4ccc(O)cc4)C(=O)NC(CC(C)C)C(=O)N[C@@H](CC(N)=O)C(=O)NC(Cc4c[nH]c5ccccc45)C(=O)N[C@H](C(=O)N[C@H](C(=O)N[C@@H](CCCNC(=N)N)C(=O)NC(CCC(N)=O)C(=O)N(C)[C@@H](CCCNC(=N)N)C(=O)NC(Cc4ccc(O)cc4)C(N)=O)[C@@H](C)O)C(C)C)c(=O)c3c2)CC1 (stereo partly drawn) [Example 27] | > 6000 nM | > 6000 nM | 9.6 nM | – | – | –
3 | CC[C@H](C)[C@H](NC(=O)[C@H](CCC(=O)O)NC(=O)[C@H](CCC(=O)O)NC(=O)CCCCCCCCCCCCCCC(=O)O)C(=O)N[C@@H](CCCCNC(=O)CCOCCOCCOCCOCCOCCOCCOCCOCCOCCOCCOCCOCCOCCOCCOCCOC)C(=O)N1CCN(c2ccc3ncn(CC(=O)N[C@@H](CCCNC(=N)N)C(=O)N[C@@H](Cc4c[nH]cn4)C(=O)N[C@@H](Cc4ccc(O)cc4)C(=O)N[C@@H](CC(C)C)C(=O)N[C@@H](CC(N)=O)C(=O)N[C@@H](Cc4c[nH]c5ccccc45)C(=O)N[C@H](C(=O)N[C@H](C(=O)N[C@@H](CCCNC(=N)N)C(=O)N[C@@H](CCC(N)=O)C(=O)N(C)[C@@H](CCCNC(=N)N)C(=O)N[C@@H](Cc4ccc(O)cc4)C(N)=O)[C@@H](C)O)C(C)C)c(=O)c3c2)CC1 [Example 54] | – | – | – | > 6000 nM | > 6000 nM | 292 nM

Now from value to compound, other results behind:

Row | EC50 [1, 4] | EC50 [2, 5] | EC50 [3, 6] | Structure (SMILES) | EC50 ([1]; read-out: Y4R EC50 (nM) FLIPR; FLIPR) | EC50 ([2]; read-out: Y5R EC50 (nM) FLIPR; FLIPR) | EC50 ([3]; read-out: Y2R EC50 (nM) FLIPR; CaFlux (FLIPR), HEK-293 cells with Gαqi9 and human NPY2 receptor)
4 | > 6000 nM | 1320 nM | 11.1 nM | CCCCCCCCCCCCCCCCCCCC(=O)N[C@@H](CCS(=O)(=O)O)C(=O)N[C@@H](CCS(=O)(=O)O)C(=O)NCCCC[C@H](NC(=O)[C@@H](NC(=O)CCOCCOCCOCCOCCOCCOCCOCCOCCOCCOCCOCCOCCOCCOCCOCCOCCOCCOCCOCCOCCOCCOCCOCCOC)[C@@H](C)CC)C(=O)N1CCN(c2ccc3ncn(CC(=O)N[C@@H](CCCNC(N)=O)C(=O)NC(Cc4c[nH]cn4)C(=O)N[C@@H](Cc4ccc(O)cc4)C(=O)NC(CC(C)C)C(=O)N[C@@H](CC(N)=O)C(=O)NC(Cc4c[nH]c5ccccc45)C(=O)N[C@H](C(=O)N[C@H](C(=O)N[C@@H](CCCNC(=N)N)C(=O)NC(CCC(N)=O)C(=O)N(C)[C@@H](CCCNC(=N)N)C(=O)NC(Cc4ccc(O)cc4)C(N)=O)[C@@H](C)O)C(C)C)c(=O)c3c2)CC1 (stereo partly drawn) [Example 28] | – | – | –
5 | > 6000 nM | > 6000 nM | 0.156 nM | CCCCCCCCCCCCCCCC(=O)N[C@@H](CCS(=O)(=O)O)C(=O)N[C@@H](CCS(=O)(=O)O)C(=O)NCCCC[C@H](NC(=O)[C@@H](NC(=O)CCOCCOCCOCCOCCOCCOCCOCCOCCOCCOCCOCCOCCOCCOCCOCCOCCOCCOCCOCCOCCOCCOCCOCCOC)[C@@H](C)CC)C(=O)N1CCN(c2ccc3ncn(CC(=O)N[C@@H](CCCNC(=N)N)C(=O)NC(Cc4c[nH]cn4)C(=O)N[C@@H](Cc4ccc(O)cc4)C(=O)NC(CC(C)C)C(=O)N[C@@H](CC(N)=O)C(=O)NC(Cc4c[nH]c5ccccc45)C(=O)N[C@H](C(=O)N[C@H](C(=O)N[C@@H](CCCNC(=N)N)C(=O)NC(CCC(N)=O)C(=O)N(C)[C@@H](CCCNC(=N)N)C(=O)NC(Cc4ccc(O)cc4)C(N)=O)[C@@H](C)O)C(C)C)c(=O)c3c2)CC1 (stereo partly drawn) [Example 29] | – | – | –
6 | > 6000 nM | 1010 nM | 0.097 nM | CCCCCCCCCCCCCCCCCCCC(=O)NCCCCCC(=O)N[C@H](C(=O)N[C@@H](CCCCNC(=O)CCOCCOCCOCCOCCOCCOCCOCCOCCOCCOCCOCCOCCOCCOCCOCCOCCOCCOCCOCCOCCOCCOCCOCCOC)C(=O)N1CCN(c2ccc3ncn(CC(=O)N[C@@H](CCCNC(=N)N)C(=O)N[C@@H](Cc4c[nH]cn4)C(=O)N[C@@H](Cc4ccc(O)cc4)C(=O)N[C@@H](CC(C)C)C(=O)N[C@@H](CC(N)=O)C(=O)N[C@@H](Cc4c[nH]c5ccccc45)C(=O)N[C@H](C(=O)N[C@H](C(=O)N[C@@H](CCCNC(=N)N)C(=O)N[C@@H](CCC(N)=O)C(=O)N(C)[C@@H](CCCNC(=N)N)C(=O)N[C@@H](Cc4ccc(O)cc4)C(N)=O)[C@@H](C)O)C(C)C)c(=O)c3c2)CC1)[C@@H](C)CC [Example 35] | – | – | –
